Test results: the OPERA property sets (Mansouri et al. 2018)

In order of falling logP:
1. c1ccc2c(c1)ccc1c3ccsc3ccc21  5.35
2. c1ccc2c(c1)ccc1sc3ccccc3c12  5.19
3. c1cc2ccc3cccc4sc(c1)c2c34  4.95
4. c1ccc2c(c1)ccc1ccsc12  4.55
5. c1ccc2cc3sccc3cc2c1  4.5
6. c1ccc2c(c1)ccc1sccc12  4.41
7. Cc1cccc2ccsc12  3.85
8. Cc1cc2ccccc2s1  3.71
9. Cc1cccc2sccc12  3.57
10. O=S1C=Cc2ccccc21 (stereo not given)  1.01
